Assay results taken from the supplement of paper PMC11061612.

Legend:
Assay in all cases: combination Emax (second highest fraction inhibited in the dose matrix, 72 h); higher = more inhibition; extreme values may be limits of the assay
[1] = system: 23132-87 (Gastric Carcinoma)
Outline: (§1)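 Bliss excess equals the observed combination effect minus the expected value EA + EB − EA·EB, where EA and EB are the effects of each agent alone. Combination Emax is the second-highest inhibition within the matrix. Inhibition was scaled from CellTiter-Glo 2.0 luminescence, with 0 set by vehicle wells and 1 by blank wells, after 72 hours of two-drug dosing of cells plated in 1536-well plates.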

A2058 (Melanoma) = system: A2058 (Melanoma)
Outline: as §1

[2] = system: CAL-120 (Breast Carcinoma)
Outline: as §1

[3] = system: COLO-680N (Esophageal Squamous Cell Carcinoma)
Outline: as §1

GB-1 (Glioblastoma) = system: GB-1 (Glioblastoma)
Outline: as §1

[4] = system: GP5d (Colorectal Carcinoma)
Outline: as §1

[5] = system: HCT-15 (Colorectal Carcinoma)
Outline: as §1

IST-MES1 (Mesothelioma) = system: IST-MES1 (Mesothelioma)
Outline: as §1

[6] = system: LB996-RCC (Kidney Carcinoma)
Outline: as §1

[7] = system: LK-2 (Squamous Cell Lung Carcinoma)
Outline: as §1

[8] = system: MKN45 (Gastric Carcinoma)
Outline: as §1

[9] = system: NCI-H23 (Lung Adenocarcinoma)
Outline: as §1

[10] = system: OVMIU (Ovarian Carcinoma)
Outline: as §1

[11] = system: PSN1 (Pancreatic Carcinoma)
Outline: as §1

[12] = system: RERF-GC-1B (Gastric Carcinoma)
Outline: as §1

[13] = system: RERF-LC-Sq1 (Squamous Cell Lung Carcinoma)
Outline: as §1

[14] = system: SHP-77 (Small Cell Lung Carcinoma)
Outline: as §1

[15] = system: SK-PN-DW (Other Solid Carcinomas)
Outline: as §1

WM278 (Melanoma) = system: WM278 (Melanoma)
Outline: as §1

WM793B (Melanoma) = system: WM793B (Melanoma)
Outline: as §1

Compound	combination Emax [1]	combination Emax (A2058 (Melanoma))	combination Emax [2]	combination Emax [3]	combination Emax (GB-1 (Glioblastoma))	combination Emax [4]	combination Emax [5]	combination Emax (IST-MES1 (Mesothelioma))	combination Emax [6]	combination Emax [7]	combination Emax [8]	combination Emax [9]	combination Emax [10]	combination Emax [11]	combination Emax [12]	combination Emax [13]	combination Emax [14]	combination Emax [15]	combination Emax (WM278 (Melanoma))	combination Emax (WM793B (Melanoma))
COc1cc2ncnc(Nc3ccc(F)c(Cl)c3)c2cc1OCCCN1CCOCC1 [Gefitinib] + CC(C)n1c(=O)n(C)c2cnc3cc(F)c(-c4ccc(OCCCN5CCCCC5)nc4)cc3c21 [AZD1390] (first compound max 10 µM, 7x7, partner max 0.3 µM)	0.127	0.119	0.14	0.213	0.0404	0.281	0.352	0.17	0.391	0.2	0.14	0.107	0.532	0.102	0.265	0.543	0.0777	0.184	0.0959	0.142
CS(=O)(=O)CCNCc1ccc(-c2ccc3ncnc(Nc4ccc(OCc5cccc(F)c5)c(Cl)c4)c3c2)o1 [Lapatinib] + C[C@@H](Oc1cc(-c2cnn(C3CCNCC3)c2)cnc1N)c1c(Cl)ccc(F)c1Cl [Crizotinib] (first compound max 10 µM, 7x7, partner max 10 µM)	0.594	0.991	0.734	0.483	0.843	0.979	0.925	0.686	0.98	0.888	0.913	0.645	0.969	0.806	0.951	0.949	0.817	0.938	0.768	0.973
CC(=O)c1c(C)c2cnc(Nc3ccc(N4CCNCC4)cn3)nc2n(C2CCCC2)c1=O [Palbociclib] + CC1(C)CCC(CN2CCN(c3ccc(C(=O)NS(=O)(=O)c4ccc(NCC5CCOCC5)c([N+](=O)[O-])c4)c(Oc4cnc5[nH]ccc5c4)c3)CC2)=C(c2ccc(Cl)cc2)C1 [Venetoclax] (first compound max 10 µM, 7x7, partner max 1 µM)	0.17	0.0912	0.134	0.0584	0.15	0.31	0.526	0.253	0.318	0.102	0.486	0.168	0.149	0.437	0.0488	0.436	0.671	0.257	0.185	0.327
CC(=O)c1c(C)c2cnc(Nc3ccc(N4CCNCC4)cn3)nc2n(C2CCCC2)c1=O [Palbociclib] + Cc1c2c(nn1C)CSCc1cc(n(C)n1)CSc1cc(c3ccccc3c1)OCCCc1c(C(=O)O)n(C)c3c-2c(Cl)ccc13 [AZD5991] (first compound max 10 µM, 7x7, partner max 1 µM)	0.305	0.753	0.134	0.237	0.238	0.881	0.532	0.344	0.397	0.33	0.498	0.934	0.27	0.564	0.784	0.594	0.646	0.787	0.156	0.432
CC(=O)c1c(C)c2cnc(Nc3ccc(N4CCNCC4)cn3)nc2n(C2CCCC2)c1=O [Palbociclib] + Cn1cnc2c(F)c(Nc3ccc(Br)cc3Cl)c(C(=O)NOCCO)cc21 [Selumetinib] (first compound max 10 µM, 7x7, partner max 10 µM)	0.128	0.47	0.186	0.193	0.275	0.768	0.523	0.334	0.285	0.5	0.694	0.387	0.427	0.702	0.333	0.512	0.527	0.261	0.574	0.585
COc1cccc(OCCCN)c1-c1cc(Nc2cnc(C#N)cn2)n[nH]1 [Prexasertib] + C=CCn1c(=O)c2cnc(Nc3ccc(N4CCN(C)CC4)cc3)nc2n1-c1cccc(C(C)(C)O)n1 [AZD1775] (first compound max 1 µM, partner max 1 µM)	0.939	0.519	0.685	0.505	0.651	1	0.972	0.609	0.877	0.92	0.865	0.918	0.814	0.781	0.887	0.906	0.949	0.968	0.605	0.938
COc1cccc(OCCCN)c1-c1cc(Nc2cnc(C#N)cn2)n[nH]1 [Prexasertib] + CCc1c2c(nc3ccc(O)cc13)-c1cc3c(c(=O)n1C2)COC(=O)[C@]3(O)CC [SN-38] (first compound max 1 µM, 7x7, partner max 0.3 µM)	0.898	0.924	0.85	0.685	0.836	0.949	0.993	0.836	0.947	0.932	0.853	0.948	0.571	0.931	0.994	0.824	0.988	0.953	0.695	0.896
COc1cccc(OCCCN)c1-c1cc(Nc2cnc(C#N)cn2)n[nH]1 [Prexasertib] + CN(C)CCCOc1ccc(-c2ccc3ncc4c(c3c2)n(C2CCOCC2)c(=O)n4C)cn1 [AZD0156] (first compound max 1 µM, 7x7, partner max 1 µM)	0.926	0.391	0.456	0.414	0.485	0.983	0.92	0.218	0.712	0.726	0.836	0.882	0.684	0.444	0.616	0.864	0.829	0.948	0.574	0.903
COc1cccc(OCCCN)c1-c1cc(Nc2cnc(C#N)cn2)n[nH]1 [Prexasertib] + C[C@@H]1COCCN1C2=NC(=NC(=C2)C3(CC3)[S@](=N)(=O)C)C4=C5C=CNC5=NC=C4 [AZD6738] (first compound max 1 µM, 7x7, partner max 10 µM)	0.908	0.436	0.446	0.416	0.691	0.967	0.95	0.278	0.786	0.689	0.822	0.884	0.596	0.536	0.543	0.899	0.836	0.937	0.569	0.907
COc1cccc(OCCCN)c1-c1cc(Nc2cnc(C#N)cn2)n[nH]1 [Prexasertib] + Cc1cc2ncnn2cc1Nc1ncc2c(n1)n(C1CCOCC1)c(=O)n2C [AZD7648] (first compound max 1 µM, 7x7, partner max 10 µM)	0.939	0.444	0.512	0.37	0.458	0.964	0.935	0.355	0.776	0.755	0.811	0.889	0.624	0.461	0.552	0.855	0.862	0.931	0.596	0.866
COc1cccc(OCCCN)c1-c1cc(Nc2cnc(C#N)cn2)n[nH]1 [Prexasertib] + O=C(c1cc(Cc2n[nH]c(=O)c3ccccc23)ccc1F)N1CCN(C(=O)C2CC2)CC1 [Olaparib] (first compound max 1 µM, 7x7, partner max 10 µM)	0.87	0.508	0.526	0.342	0.439	0.945	0.883	0.283	0.759	0.799	0.854	0.879	0.592	0.456	0.552	0.833	0.819	0.937	0.627	0.873
COc1cc2c(cc1OCCCCCOc1cc3c(cc1OC)C(=O)N1C=C(C)C[C@H]1C=N3)N=C[C@@H]1CC(C)=CN1C2=O [SG3199] + O=C(c1cc(Cc2n[nH]c(=O)c3ccccc23)ccc1F)N1CCN(C(=O)C2CC2)CC1 [Olaparib] (first compound max 0.001 µM, 7x7, partner max 10 µM)	0.3	0.141	0.142	0.0893	0.141	0.189	0.264	0.218	0.282	0.28	0.0741	0.253	0.0896	0.127	0.245	0.129	0.223	0.393	0.0771	0.194
CCc1c2c(nc3ccc(O)cc13)-c1cc3c(c(=O)n1C2)COC(=O)[C@]3(O)CC [SN-38] + CN(C)CCCOc1ccc(-c2ccc3ncc4c(c3c2)n(C2CCOCC2)c(=O)n4C)cn1 [AZD0156] (first compound max 0.3 µM, 7x7, partner max 1 µM)	0.845	0.401	0.381	0.412	0.735	0.655	0.943	0.875	0.898	0.584	0.815	0.554	0.32	0.705	0.788	0.743	0.48	0.92	0.635	0.85
